Some targets named below: D(1A) dopamine receptor (Homo sapiens, UniProt P21728); Mu-type opioid receptor (Homo sapiens, UniProt P35372); Histamine H3 receptor (Homo sapiens, UniProt Q9Y5N1).
Experiment [1] addresses T1, Muscarinic acetylcholine receptor M2 (Homo sapiens, UniProt P08172).
T1 sequence (P08172 whole entry): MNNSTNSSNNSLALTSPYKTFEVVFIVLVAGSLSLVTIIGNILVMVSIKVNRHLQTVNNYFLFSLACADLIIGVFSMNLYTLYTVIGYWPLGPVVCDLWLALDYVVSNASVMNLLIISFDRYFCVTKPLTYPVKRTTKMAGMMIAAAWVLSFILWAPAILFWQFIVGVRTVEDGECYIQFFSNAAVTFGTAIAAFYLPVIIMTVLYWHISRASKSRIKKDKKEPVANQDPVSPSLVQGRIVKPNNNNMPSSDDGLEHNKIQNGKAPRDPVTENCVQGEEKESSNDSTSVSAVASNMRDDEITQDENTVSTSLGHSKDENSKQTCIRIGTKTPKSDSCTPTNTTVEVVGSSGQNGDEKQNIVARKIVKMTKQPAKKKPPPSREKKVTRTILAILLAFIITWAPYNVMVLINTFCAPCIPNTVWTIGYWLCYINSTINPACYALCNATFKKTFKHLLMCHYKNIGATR

Experiment [2] addresses T2, Alpha-1A adrenergic receptor (Homo sapiens, UniProt P35348).
T2 sequence (P35348 whole entry): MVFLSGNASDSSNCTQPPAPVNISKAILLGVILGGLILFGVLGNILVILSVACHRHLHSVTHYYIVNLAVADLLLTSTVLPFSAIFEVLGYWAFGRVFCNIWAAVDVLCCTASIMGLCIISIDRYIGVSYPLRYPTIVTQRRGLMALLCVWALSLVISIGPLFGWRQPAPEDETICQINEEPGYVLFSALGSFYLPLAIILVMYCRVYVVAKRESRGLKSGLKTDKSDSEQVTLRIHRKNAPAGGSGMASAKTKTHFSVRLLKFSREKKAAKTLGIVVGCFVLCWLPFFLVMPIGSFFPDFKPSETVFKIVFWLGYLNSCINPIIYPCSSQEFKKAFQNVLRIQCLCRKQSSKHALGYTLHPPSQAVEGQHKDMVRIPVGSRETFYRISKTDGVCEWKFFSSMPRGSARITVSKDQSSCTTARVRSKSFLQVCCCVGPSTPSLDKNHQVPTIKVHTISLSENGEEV
The format is functional, cell-based.

Experiment [3] addresses T2, Alpha-1A adrenergic receptor. The format is functional, cell-based. This is another data set of the same source.
A further experiment concerns the target T3, Thromboxane A2 receptor (Homo sapiens, UniProt P21731).
T3 sequence (P21731 whole entry): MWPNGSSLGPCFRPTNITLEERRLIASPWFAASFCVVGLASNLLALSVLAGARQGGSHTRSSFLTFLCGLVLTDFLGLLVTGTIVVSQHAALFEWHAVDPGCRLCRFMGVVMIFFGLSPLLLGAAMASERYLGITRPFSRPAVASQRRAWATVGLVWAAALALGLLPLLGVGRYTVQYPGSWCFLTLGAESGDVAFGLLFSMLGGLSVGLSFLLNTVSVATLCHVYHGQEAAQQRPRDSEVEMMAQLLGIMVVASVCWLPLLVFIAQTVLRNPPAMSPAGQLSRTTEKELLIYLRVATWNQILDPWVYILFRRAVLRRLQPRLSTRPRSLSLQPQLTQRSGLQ
The format is functional, cell-based.

The next experiment addresses T4, Progesterone receptor (Homo sapiens, UniProt P06401).
T4 sequence (P06401 whole entry): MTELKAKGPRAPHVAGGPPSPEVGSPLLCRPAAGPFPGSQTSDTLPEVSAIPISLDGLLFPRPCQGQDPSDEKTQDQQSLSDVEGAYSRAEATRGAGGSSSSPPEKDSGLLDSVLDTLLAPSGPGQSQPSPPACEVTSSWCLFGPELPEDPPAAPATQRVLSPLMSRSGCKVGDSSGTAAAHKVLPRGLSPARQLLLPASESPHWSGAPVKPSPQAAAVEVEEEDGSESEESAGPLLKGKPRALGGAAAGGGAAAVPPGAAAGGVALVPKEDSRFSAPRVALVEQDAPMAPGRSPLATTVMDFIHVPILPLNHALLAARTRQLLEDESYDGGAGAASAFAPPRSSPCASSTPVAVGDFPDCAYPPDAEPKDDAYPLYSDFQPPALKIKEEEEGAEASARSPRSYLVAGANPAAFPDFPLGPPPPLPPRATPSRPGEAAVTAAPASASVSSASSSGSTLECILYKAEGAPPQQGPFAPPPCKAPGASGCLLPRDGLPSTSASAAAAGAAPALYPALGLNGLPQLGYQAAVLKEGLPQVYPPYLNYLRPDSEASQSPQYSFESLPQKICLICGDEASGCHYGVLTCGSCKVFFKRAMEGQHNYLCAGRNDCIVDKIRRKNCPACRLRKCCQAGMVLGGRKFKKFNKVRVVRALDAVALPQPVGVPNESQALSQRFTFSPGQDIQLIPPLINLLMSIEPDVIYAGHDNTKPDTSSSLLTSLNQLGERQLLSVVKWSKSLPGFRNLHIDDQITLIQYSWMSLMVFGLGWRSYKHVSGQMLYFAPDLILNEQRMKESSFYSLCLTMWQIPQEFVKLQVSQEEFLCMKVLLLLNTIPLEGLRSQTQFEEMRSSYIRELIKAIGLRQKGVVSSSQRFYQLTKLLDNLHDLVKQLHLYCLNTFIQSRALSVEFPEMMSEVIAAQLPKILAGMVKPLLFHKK

Experiment [4] deals with Prostaglandin G/H synthase 1 (Homo sapiens, UniProt P23219). The format is functional.
For experiment [5], the target named is 3',5'-cyclic-AMP phosphodiesterase 4A (Homo sapiens, UniProt P27815). The format is functional.

A value given as a limit tells only on which side of the number the result lay.

Broadly, the AC50 is the concentration giving half of the maximal activity seen.
Also: assay procedure not described here.

Sequence of 3',5'-cyclic-AMP phosphodiesterase 4A (P27815 whole entry): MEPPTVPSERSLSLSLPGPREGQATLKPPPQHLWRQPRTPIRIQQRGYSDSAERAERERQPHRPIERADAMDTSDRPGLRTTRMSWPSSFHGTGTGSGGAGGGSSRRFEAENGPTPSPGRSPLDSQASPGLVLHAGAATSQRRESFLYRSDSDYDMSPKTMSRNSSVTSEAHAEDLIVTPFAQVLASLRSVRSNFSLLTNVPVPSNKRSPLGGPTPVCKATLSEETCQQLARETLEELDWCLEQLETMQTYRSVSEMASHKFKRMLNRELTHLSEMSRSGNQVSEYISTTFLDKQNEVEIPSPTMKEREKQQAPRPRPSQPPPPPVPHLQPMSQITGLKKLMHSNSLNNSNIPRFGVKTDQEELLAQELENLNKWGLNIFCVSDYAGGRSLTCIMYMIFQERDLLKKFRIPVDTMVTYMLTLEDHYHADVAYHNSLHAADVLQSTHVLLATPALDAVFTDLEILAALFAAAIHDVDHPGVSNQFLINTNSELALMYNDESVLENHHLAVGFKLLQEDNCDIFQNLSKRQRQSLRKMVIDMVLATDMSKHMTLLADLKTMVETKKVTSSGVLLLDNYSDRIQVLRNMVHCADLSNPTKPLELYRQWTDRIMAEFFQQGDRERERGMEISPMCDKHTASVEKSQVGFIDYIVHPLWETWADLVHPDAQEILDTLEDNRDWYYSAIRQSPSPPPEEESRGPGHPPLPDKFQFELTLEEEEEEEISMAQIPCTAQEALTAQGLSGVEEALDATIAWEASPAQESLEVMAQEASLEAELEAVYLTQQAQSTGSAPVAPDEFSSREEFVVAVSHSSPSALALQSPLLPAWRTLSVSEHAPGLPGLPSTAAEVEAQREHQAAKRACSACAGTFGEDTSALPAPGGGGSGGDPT
Sequence of Histamine H3 receptor (Q9Y5N1 whole entry): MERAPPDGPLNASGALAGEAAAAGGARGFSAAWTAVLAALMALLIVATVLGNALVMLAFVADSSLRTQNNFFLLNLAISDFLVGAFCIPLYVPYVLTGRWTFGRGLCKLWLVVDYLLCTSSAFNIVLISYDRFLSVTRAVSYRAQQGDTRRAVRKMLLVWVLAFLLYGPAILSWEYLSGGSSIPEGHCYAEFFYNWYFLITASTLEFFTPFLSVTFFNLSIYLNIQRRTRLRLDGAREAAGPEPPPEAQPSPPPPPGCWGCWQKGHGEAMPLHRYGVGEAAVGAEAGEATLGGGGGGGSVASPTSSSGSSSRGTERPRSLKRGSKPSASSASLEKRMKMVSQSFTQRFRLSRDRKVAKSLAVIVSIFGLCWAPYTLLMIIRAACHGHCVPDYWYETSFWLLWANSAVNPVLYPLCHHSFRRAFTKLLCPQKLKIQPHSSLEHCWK
Sequence of Mu-type opioid receptor (P35372 whole entry): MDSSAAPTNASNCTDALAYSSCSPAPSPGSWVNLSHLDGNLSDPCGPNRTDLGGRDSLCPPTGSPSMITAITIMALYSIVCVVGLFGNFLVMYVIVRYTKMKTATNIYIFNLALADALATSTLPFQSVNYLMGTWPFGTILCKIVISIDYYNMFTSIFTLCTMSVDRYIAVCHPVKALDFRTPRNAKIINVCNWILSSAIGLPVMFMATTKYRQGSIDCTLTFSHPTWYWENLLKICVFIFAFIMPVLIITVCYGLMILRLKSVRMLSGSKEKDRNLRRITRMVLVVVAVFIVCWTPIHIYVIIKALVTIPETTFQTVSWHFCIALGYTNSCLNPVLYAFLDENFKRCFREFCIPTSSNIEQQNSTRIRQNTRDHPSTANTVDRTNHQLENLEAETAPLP
Sequence of Prostaglandin G/H synthase 1 (P23219 whole entry): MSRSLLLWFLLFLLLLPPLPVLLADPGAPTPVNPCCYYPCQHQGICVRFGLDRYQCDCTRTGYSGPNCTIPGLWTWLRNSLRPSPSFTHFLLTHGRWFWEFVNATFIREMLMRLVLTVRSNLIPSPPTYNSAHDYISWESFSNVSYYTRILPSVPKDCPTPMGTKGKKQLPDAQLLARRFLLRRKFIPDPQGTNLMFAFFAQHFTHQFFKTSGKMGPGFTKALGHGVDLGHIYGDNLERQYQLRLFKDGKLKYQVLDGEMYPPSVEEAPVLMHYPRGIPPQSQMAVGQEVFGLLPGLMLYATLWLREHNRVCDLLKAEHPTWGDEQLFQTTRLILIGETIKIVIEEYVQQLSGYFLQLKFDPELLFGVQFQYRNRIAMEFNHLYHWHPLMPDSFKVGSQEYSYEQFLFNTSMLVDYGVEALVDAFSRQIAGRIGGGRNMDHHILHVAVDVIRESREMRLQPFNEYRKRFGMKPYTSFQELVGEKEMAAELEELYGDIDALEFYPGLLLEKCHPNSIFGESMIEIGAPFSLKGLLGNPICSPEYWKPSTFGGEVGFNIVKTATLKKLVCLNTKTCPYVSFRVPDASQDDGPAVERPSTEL
Sequence of D(1A) dopamine receptor (P21728 whole entry): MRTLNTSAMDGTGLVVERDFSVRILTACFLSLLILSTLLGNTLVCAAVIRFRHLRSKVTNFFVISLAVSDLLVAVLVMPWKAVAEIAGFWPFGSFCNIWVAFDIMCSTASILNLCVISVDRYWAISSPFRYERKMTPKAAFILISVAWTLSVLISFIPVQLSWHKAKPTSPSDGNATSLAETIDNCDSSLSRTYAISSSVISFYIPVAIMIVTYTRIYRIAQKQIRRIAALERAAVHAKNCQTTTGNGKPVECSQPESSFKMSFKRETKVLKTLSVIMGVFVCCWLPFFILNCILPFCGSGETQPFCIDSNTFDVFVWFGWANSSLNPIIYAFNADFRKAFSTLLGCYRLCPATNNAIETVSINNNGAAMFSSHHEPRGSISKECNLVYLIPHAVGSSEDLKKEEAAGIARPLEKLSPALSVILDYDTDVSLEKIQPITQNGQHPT

Consider `CC(=O)OCC(=O)[C@@]1(OC(C)=O)[C@@H](C)C[C@H]2[C@@H]3C[C@H](F)C4=CC(=O)C=C[C@]4(C)[C@@]3(F)[C@@H](O)C[C@@]21C` [DIFLORASONE DIACETATE], for which the AC50 (in experiment [1]; in experiment [2]; in experiment [3]; on D(1A) dopamine receptor; at Mu-type opioid receptor; at Thromboxane A2 receptor) was greater than 30 µM throughout. Moreover, the AC50 on Progesterone receptor was 0.0193 µM; on Histamine H3 receptor, greater than 30 µM; in experiment [4] it was greater than 30 µM; in experiment [5] it was greater than 30 µM.

For `COc1cccc2c1C(=O)c1c(O)c3c(c(O)c1C2=O)C[C@@](O)(C(=O)CO)C[C@@H]3O[C@H]1C[C@H](N)[C@H](O)[C@H](C)O1` [DOXORUBICIN], the AC50 in [1] is greater than 30 µM; in experiment [2], greater than 30 µM; in experiment [3], greater than 30 µM; on D(1A) dopamine receptor, greater than 30 µM; on Mu-type opioid receptor it was greater than 30 µM; on Thromboxane A2 receptor it was 24.7 µM. Besides, the AC50 at Progesterone receptor was greater than 30 µM; at Histamine H3 receptor, greater than 30 µM; in [4], 15.5 µM; in experiment [5], greater than 30 µM.

For `COc1cccc2c1C(=O)c1c(O)c3c(c(O)c1C2=O)C[C@@](O)(C(=O)CO)C[C@@H]3O[C@H]1C[C@H](N)[C@@H](O)[C@H](C)O1` [EPIRUBICIN], the AC50 was 25.2 µM in experiment [1]; 8.86 µM in [2]; greater than 1 µM in experiment [3]; greater than 30 µM on D(1A) dopamine receptor; greater than 30 µM at Mu-type opioid receptor; 8.17 µM at Thromboxane A2 receptor. In addition, the AC50 is greater than 30 µM on Progesterone receptor, greater than 30 µM on Histamine H3 receptor, 2.44 µM in experiment [4] and 19.3 µM in experiment [5].

`CCCCC(=O)O[C@H]1CC[C@H]2[C@@H]3CCc4cc(O)ccc4[C@H]3CC[C@]12C` [ESTRADIOL VALERATE]: the AC50 (in experiment [1]; in experiment [2]; in experiment [3]; on D(1A) dopamine receptor; at Mu-type opioid receptor; on Thromboxane A2 receptor) was greater than 30 µM throughout. Moreover, the AC50 on Progesterone receptor is 0.234 µM; at Histamine H3 receptor, greater than 30 µM; in experiment [4], greater than 30 µM; in [5] it was greater than 10 µM.

As for `CCOc1ccc(Cc2nccc3cc(OCC)c(OCC)cc23)cc1OCC` [ETHAVERINE], the AC50 is greater than 30 µM in experiment [1]; greater than 30 µM in experiment [2]; 9.55 µM in [3]; 8.59 µM at D(1A) dopamine receptor; greater than 30 µM at Mu-type opioid receptor; greater than 30 µM on Thromboxane A2 receptor. Further, the AC50 on Progesterone receptor is greater than 30 µM; on Histamine H3 receptor, greater than 30 µM; in experiment [4] it was greater than 10 µM; in experiment [5], 0.466 µM.

Turning to `CC(C)(Oc1ccc(C(=O)c2ccc(Cl)cc2)cc1)C(=O)O` [FENOFIBRIC ACID], the AC50 (in [1]; in [2]; in experiment [3]; on D(1A) dopamine receptor; on Mu-type opioid receptor; on Thromboxane A2 receptor) was greater than 30 µM in each case. For the same molecule, the AC50 is greater than 30 µM on Progesterone receptor, greater than 30 µM at Histamine H3 receptor, greater than 30 µM in experiment [4] and greater than 3 µM in experiment [5].

Turning to `COC(=O)Nc1nc2cc(C(=O)c3ccc(F)cc3)ccc2[nH]1` [FLUBENDAZOLE], the AC50 (in [1]; in [2]; in [3]; at D(1A) dopamine receptor; at Mu-type opioid receptor; at Thromboxane A2 receptor) was greater than 30 µM throughout. In addition, the AC50 (at Progesterone receptor; at Histamine H3 receptor; in [4]; in experiment [5]) was greater than 30 µM each time.

With `CC(C)Cc1ccc(C(C)C(=O)OCc2ccccn2)cc1` (stereo not given) [IBUPROFEN PICONOL], the AC50 (in experiment [1]; in [2]; in experiment [3]; at D(1A) dopamine receptor; on Mu-type opioid receptor; on Thromboxane A2 receptor) was greater than 30 µM each time. Further, the AC50 at Progesterone receptor was 19.1 µM; at Histamine H3 receptor, greater than 30 µM; in experiment [4], 10.8 µM; in experiment [5] it was greater than 30 µM.

Turning to `CCn1c(=O)c2c(nc(/C=C/c3ccc(OC)c(OC)c3)n2C)n(CC)c1=O` [ISTRADEFYLLINE], the AC50 (in experiment [1]; in experiment [2]; in experiment [3]; on D(1A) dopamine receptor; at Mu-type opioid receptor; on Thromboxane A2 receptor) was greater than 30 µM in each case. The AC50 on Progesterone receptor was greater than 30 µM; on Histamine H3 receptor, greater than 30 µM; in experiment [4] it was greater than 30 µM; in experiment [5] it was 2.77 µM.

As to `CC(C)NC[C@H](O)COc1ccc(CCOCC2CC2)cc1` [LEVOBETAXOLOL], the AC50 (in experiment [1]; in [2]; in experiment [3]; at D(1A) dopamine receptor; on Mu-type opioid receptor; at Thromboxane A2 receptor) was greater than 30 µM each time. The AC50 (at Progesterone receptor; at Histamine H3 receptor; in experiment [4]; in experiment [5]) was greater than 30 µM in each case.

With `Cc1cccc(C)c1NC(=O)CN(CC(=O)O)CC(=O)O` [LIDOFENIN], the AC50 (in experiment [1]; in experiment [2]; in experiment [3]; at D(1A) dopamine receptor; at Mu-type opioid receptor; on Thromboxane A2 receptor) was greater than 30 µM in each case. The AC50 (on Progesterone receptor; on Histamine H3 receptor; in experiment [4]; in experiment [5]) was greater than 30 µM in each case.

Regarding `CN1CCc2c(c3ccccc3n2Cc2ccccc2)C1` [MEBHYDROLIN], the AC50 in experiment [1] was 0.268 µM; in [2], greater than 30 µM; in [3], 1.07 µM; at D(1A) dopamine receptor it was 1.98 µM; at Mu-type opioid receptor, 18.7 µM; at Thromboxane A2 receptor, greater than 30 µM. Further, the concentration at half-maximal activity (AC50) (at Progesterone receptor; on Histamine H3 receptor; in experiment [4]; in experiment [5]) was greater than 30 µM in each case.

The values are drawn from ChEMBL document CHEMBL5291721, “A preclinical secondary pharmacology resource illuminates target-adverse drug reaction associations of marketed drugs” (Nat Commun, 2023).
